# Test system: amygdala kindled rat model of partial epilepsy
# Assay: In Vivo, Amygdala Kindling Assay
# Parameters: species or system Sprague-Dawley rats
# Source text: The development of amygdala kindling is an established model of epileptogenesis. (Amano K, Hamada K, Yagi K, Seino M. Antiepileptic effects of topiramate on amygdaloid kindling in rats. Epilepsy Res. 1998 July;31(2):123-8; Barton M E, White H S. The effect of CGX-1007 and CI-1041, novel NMDA receptor antagonists, on kindling acquisition and expression. Epilepsy Res. 2004 March;59(1):1-12; Loscher W, Honack D, Rundfeldt C. Antiepileptogenic effects of the novel anticonvulsant levetiracetam (ucb L059)in the kindling model of temporal lobe epilepsy. J Pharmacol Exp Ther. 1998 February;284(2):474-9; McNamara J O. Analyses of the molecular basis of kindling development. Psychiatry Clin Neurosci. 1995 June; 49(3):S175-8. Review.; Morimoto K, Katayama K, Inoue K, Sato K. Effects of competitive and noncompetitive NMDA receptor antagonists on kindling and LTP. Pharmacol Biochem Behav. 1991 December;40(4):893-9; Racine, R. J. 1972. Modification of seizure activity by electrical stimulation. II. Motor seizure. Electroencephalogr. Clin. Neurophysiol. 32, 281-294). The kindled rat model of partial epilepsy is an accepted model of epileptogenesis (McNamara J O. Analyses of the molecular basis of kindling development. Psychiatry Clin Neurosci. 1995 June;49(3):S175-8. Review.).
# Briefly, the assay procedure was as follows. Adult male, Sprague-Dawley rats weighing between 250-300 g were obtained from Charles River, Wilmington, Mass. were used for experimental procedures. All animals were housed on a 12:12 light dark cycle and permitted free access to both food (Prolab RMH 3000) and water except when removed from the home cage for experimental procedures. Animals were cared for in a matter consistent with the recommendations detailed in the National Research Council Publication, “Guide for the Care and Use of Laboratory Animals” in a temperature controlled, pesticide-free facility. Kindling stimulations were routinely performed between 9 AM-2 PM to avoid any circadian variations.
# Compound #1 was triturated in a small volume of 0.5% methylcellulose, sonicated for 10 min, and brought to a final volume with 0.5% methylcellulose. The compound was administered systemically (i.p.) in a volume of 0.04 ml/10 g body weight and all tests were conducted at the pre-determined time of peak effect of 0.5 hours after i.p. administration.
# The ability of Compound #1 to block the expression of amygdala kindled seizures was determined. For this study, rats were anaesthetized with a ketamine (120 mg/kg, i.p.) and xylazine (12 mg/kg, i.p.) cocktail. […]
# Amygdala kindling was then performed according to the following protocol (Barton and White, 2004). […] The behavioral seizure score and AD duration was recorded for rats in each treatment group. […]
smiles,measurement,setting,value
"NS(=O)(=O)NCc1csc2ccccc12 [Compound #1, N-(benzo[b]thien-3-ylmethyl)-sulfamide]",behavioral seizure score (Racine scale) at the conclusion of the drug- and stimulus-free period,"100 mg/kg i.p. 30 min before daily amygdala stimulation (200 μA, 2 s) for up to 13 days, re-challenged without drug after one-week stimulus- and drug-free period, n=10 rats, vehicle=4.6±0.24",0.1±0.11
same,"after-discharge (AD) duration over the kindling acquisition phase, versus vehicle","100 mg/kg i.p., daily stimulation, days 1-13, progressive increase in both groups",No statistical difference
same,acquisition of the full generalized kindled seizure,"100 mg/kg i.p., rats, kindling acquisition",prevented the acquisition of the full generalized kindled seizure
same,delay of the acquisition of kindling,"stimulated in the absence of drug after the drug-free week, seizure score rose parallel to vehicle-treated rats",delayed the acquisition of kindling by several days
